# Reference: PubChem BioAssay (NCI)
#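 The compound was tested at five concentrations on cells cultured in 96-well plates, with a 48-hour exposure period. GI50 = concentration required for 50% inhibition of growth. TGI: concentration producing complete growth inhibition.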
# Columns and labels:
# Assay in all cases: inhibition of tumour cell growth, NCI panel, 48 h
# SF-295 CNS = test system: SF-295 CNS
# EKVX NSCLC = test system: EKVX NSCLC
# SF-539 CNS = test system: SF-539 CNS
# UO-31 renal = test system: UO-31 renal
# UACC-62 melanoma = test system: UACC-62 melanoma
# SNB-75 CNS = test system: SNB-75 CNS
# SK-OV-3 ovarian = test system: SK-OV-3 ovarian
# IGROV1 ovarian = test system: IGROV1 ovarian
# NCI-H460 lung = test system: NCI-H460 lung
# TK-10 renal = test system: TK-10 renal
# NCI-H522 lung = test system: NCI-H522 lung
# RPMI-8226 leukemia = test system: RPMI-8226 leukemia
# DU-145 prostate = test system: DU-145 prostate
# SN12C renal = test system: SN12C renal
# A498 renal = test system: A498 renal
# NCI-H226 lung = test system: NCI-H226 lung
# OVCAR-3 ovarian = test system: OVCAR-3 ovarian
# SW-620 colon = test system: SW-620 colon
# T-47D breast = test system: T-47D breast
# OVCAR-4 ovarian = test system: OVCAR-4 ovarian
# KM12 colon = test system: KM12 colon
# NCI/ADR-RES ovarian = test system: NCI/ADR-RES ovarian
# U251 CNS = test system: U251 CNS
# CCRF-CEM leukemia = test system: CCRF-CEM leukemia
# HCT-116 colon = test system: HCT-116 colon
# OVCAR-8 ovarian = test system: OVCAR-8 ovarian
# SK-MEL-5 melanoma = test system: SK-MEL-5 melanoma
# PC-3 prostate = test system: PC-3 prostate
# ACHN renal = test system: ACHN renal
# BT-549 breast = test system: BT-549 breast
# HL-60(TB) leukemia = test system: HL-60(TB) leukemia
# HCC-2998 colon = test system: HCC-2998 colon
# UACC-257 melanoma = test system: UACC-257 melanoma
# SK-MEL-28 melanoma = test system: SK-MEL-28 melanoma
# 786-0 renal = test system: 786-0 renal
# HS 578T breast = test system: HS 578T breast
# LOX IMVI melanoma = test system: LOX IMVI melanoma
# HCT-15 colon = test system: HCT-15 colon
# M14 melanoma = test system: M14 melanoma
# NCI-H23 lung = test system: NCI-H23 lung
# COLO 205 colon = test system: COLO 205 colon
# HOP-62 NSCLC = test system: HOP-62 NSCLC
# SR leukemia = test system: SR leukemia
# HT29 colon = test system: HT29 colon
# K-562 leukemia = test system: K-562 leukemia
# MOLT-4 leukemia = test system: MOLT-4 leukemia
# SK-MEL-2 melanoma = test system: SK-MEL-2 melanoma
# CAKI-1 renal = test system: CAKI-1 renal
# MCF7 breast = test system: MCF7 breast
# SNB-19 CNS = test system: SNB-19 CNS
# RXF 393 renal = test system: RXF 393 renal
# MDA-MB-435 = test system: MDA-MB-435
# HOP-92 NSCLC = test system: HOP-92 NSCLC
# A549 NSCLC = test system: A549 NSCLC
# SF-268 CNS = test system: SF-268 CNS
# MDA-MB-231 breast = test system: MDA-MB-231 breast
# OVCAR-5 ovarian = test system: OVCAR-5 ovarian
structure (smiles),measurement,setting,value
COc1ccc(-c2nc3ccccn3c2/C=C/C(=O)c2cc(OC)c(OC)c(OC)c2)cc1,GI50,SF-295 CNS,15.2 µM
same,TGI,SF-295 CNS,69.5 µM
same,GI50,EKVX NSCLC,7.42 µM
same,TGI,EKVX NSCLC,> 100 µM
same,GI50,SF-539 CNS,2.39 µM
same,TGI,SF-539 CNS,11.5 µM
same,GI50,UO-31 renal,1.31 µM
same,TGI,UO-31 renal,> 100 µM
same,GI50,UACC-62 melanoma,5.58 µM
same,TGI,UACC-62 melanoma,> 100 µM
same,GI50,SNB-75 CNS,5.49 µM
same,TGI,SNB-75 CNS,54.5 µM
same,GI50,SK-OV-3 ovarian,14.8 µM
same,TGI,SK-OV-3 ovarian,> 100 µM
same,GI50,IGROV1 ovarian,8.86 µM
same,TGI,IGROV1 ovarian,> 100 µM
same,GI50,NCI-H460 lung,4.09 µM
same,TGI,NCI-H460 lung,31 µM
same,GI50,TK-10 renal,4.16 µM
same,TGI,TK-10 renal,> 100 µM
same,GI50,NCI-H522 lung,3.12 µM
same,TGI,NCI-H522 lung,23.4 µM
same,GI50,RPMI-8226 leukemia,7.5 µM
same,TGI,RPMI-8226 leukemia,> 100 µM
same,GI50,DU-145 prostate,7.21 µM
same,TGI,DU-145 prostate,41.1 µM
same,GI50,SN12C renal,11.4 µM
same,TGI,SN12C renal,> 100 µM
same,GI50,A498 renal,10.4 µM
same,TGI,A498 renal,43.9 µM
same,GI50,NCI-H226 lung,24.1 µM
same,TGI,NCI-H226 lung,> 100 µM
same,GI50,OVCAR-3 ovarian,2.88 µM
same,TGI,OVCAR-3 ovarian,9.67 µM
same,GI50,SW-620 colon,4.16 µM
same,TGI,SW-620 colon,> 100 µM
same,GI50,T-47D breast,2.59 µM
same,TGI,T-47D breast,14 µM
same,GI50,OVCAR-4 ovarian,5.72 µM
same,TGI,OVCAR-4 ovarian,> 100 µM
same,GI50,KM12 colon,4.99 µM
same,TGI,KM12 colon,> 100 µM
same,GI50,NCI/ADR-RES ovarian,3.36 µM
same,TGI,NCI/ADR-RES ovarian,29.4 µM
same,GI50,U251 CNS,3 µM
same,TGI,U251 CNS,30.6 µM
same,GI50,CCRF-CEM leukemia,18.8 µM
same,TGI,CCRF-CEM leukemia,> 100 µM
same,GI50,HCT-116 colon,2.26 µM
same,TGI,HCT-116 colon,11.1 µM
same,GI50,OVCAR-8 ovarian,3.92 µM
same,TGI,OVCAR-8 ovarian,> 100 µM
same,GI50,SK-MEL-5 melanoma,2.72 µM
same,TGI,SK-MEL-5 melanoma,14.3 µM
same,GI50,PC-3 prostate,19.8 µM
same,TGI,PC-3 prostate,> 100 µM
same,GI50,ACHN renal,3.26 µM
same,TGI,ACHN renal,> 100 µM
same,GI50,BT-549 breast,3.27 µM
same,TGI,BT-549 breast,> 100 µM
same,GI50,HL-60(TB) leukemia,34 µM
same,TGI,HL-60(TB) leukemia,> 100 µM
same,GI50,HCC-2998 colon,8.27 µM
same,TGI,HCC-2998 colon,42 µM
same,GI50,UACC-257 melanoma,5.85 µM
same,TGI,UACC-257 melanoma,> 100 µM
same,GI50,SK-MEL-28 melanoma,7.1 µM
same,TGI,SK-MEL-28 melanoma,> 100 µM
same,GI50,786-0 renal,3.9 µM
same,TGI,786-0 renal,> 100 µM
same,GI50,HS 578T breast,2.89 µM
same,TGI,HS 578T breast,51.7 µM
same,GI50,LOX IMVI melanoma,6.05 µM
same,TGI,LOX IMVI melanoma,> 100 µM
same,GI50,HCT-15 colon,4.85 µM
same,TGI,HCT-15 colon,> 100 µM
same,GI50,M14 melanoma,9.8 µM
same,TGI,M14 melanoma,28.6 µM
same,GI50,NCI-H23 lung,3.41 µM
same,TGI,NCI-H23 lung,94.1 µM
same,GI50,COLO 205 colon,3.5 µM
same,TGI,COLO 205 colon,13.5 µM
same,GI50,HOP-62 NSCLC,36.2 µM
same,TGI,HOP-62 NSCLC,> 100 µM
same,GI50,SR leukemia,3.71 µM
same,TGI,SR leukemia,> 100 µM
same,GI50,HT29 colon,4.8 µM
same,TGI,HT29 colon,32.4 µM
same,GI50,K-562 leukemia,13.1 µM
same,TGI,K-562 leukemia,> 100 µM
same,GI50,MOLT-4 leukemia,32.9 µM
same,TGI,MOLT-4 leukemia,> 100 µM
same,GI50,SK-MEL-2 melanoma,4.95 µM
same,TGI,SK-MEL-2 melanoma,> 100 µM
same,GI50,CAKI-1 renal,8.33 µM
same,TGI,CAKI-1 renal,> 100 µM
same,GI50,MCF7 breast,2.38 µM
same,TGI,MCF7 breast,21.4 µM
same,GI50,SNB-19 CNS,25.2 µM
same,TGI,SNB-19 CNS,> 100 µM
same,GI50,RXF 393 renal,2.94 µM
same,TGI,RXF 393 renal,> 100 µM
same,GI50,MDA-MB-435,5.76 µM
same,TGI,MDA-MB-435,27.6 µM
same,GI50,HOP-92 NSCLC,2.36 µM
same,TGI,HOP-92 NSCLC,51.4 µM
same,GI50,A549 NSCLC,7.96 µM
same,TGI,A549 NSCLC,> 100 µM
same,GI50,SF-268 CNS,4 µM
same,TGI,SF-268 CNS,> 100 µM
same,GI50,MDA-MB-231 breast,5.22 µM
same,TGI,MDA-MB-231 breast,> 100 µM
same,GI50,OVCAR-5 ovarian,9.33 µM
same,TGI,OVCAR-5 ovarian,82.2 µM
